In general, Ki refers to a dissociation constant, usually derived from enzyme kinetics or from competition with a known ligand.

Structures are written as SMILES. Like-named read-outs stand apart in the source and are kept apart here.

The target of series [1] is T1, human A2b receptor subtype (Homo sapiens, UniProt P29275).
T1 construct: expressed in transfected cells; host or cells: HEK293
T1 sequence (P29275 1-332): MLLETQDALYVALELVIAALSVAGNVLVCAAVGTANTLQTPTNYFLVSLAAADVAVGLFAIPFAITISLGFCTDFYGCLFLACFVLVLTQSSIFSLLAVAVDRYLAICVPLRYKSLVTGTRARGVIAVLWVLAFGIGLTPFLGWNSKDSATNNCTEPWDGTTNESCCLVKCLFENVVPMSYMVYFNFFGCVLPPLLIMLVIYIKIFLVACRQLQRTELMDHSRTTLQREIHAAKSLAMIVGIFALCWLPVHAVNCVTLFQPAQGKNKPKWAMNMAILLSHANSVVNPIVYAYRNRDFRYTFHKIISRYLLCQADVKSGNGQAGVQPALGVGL
The series can be described thus: Adenosine 2b receptor subtype competition radioligand binding, [3H]DPCPX, HEK293 membranes.

The target in series [2] is T2, human A3 receptor subtype (Homo sapiens, UniProt P0DMS8).
T2 sequence (P0DMS8 1-318): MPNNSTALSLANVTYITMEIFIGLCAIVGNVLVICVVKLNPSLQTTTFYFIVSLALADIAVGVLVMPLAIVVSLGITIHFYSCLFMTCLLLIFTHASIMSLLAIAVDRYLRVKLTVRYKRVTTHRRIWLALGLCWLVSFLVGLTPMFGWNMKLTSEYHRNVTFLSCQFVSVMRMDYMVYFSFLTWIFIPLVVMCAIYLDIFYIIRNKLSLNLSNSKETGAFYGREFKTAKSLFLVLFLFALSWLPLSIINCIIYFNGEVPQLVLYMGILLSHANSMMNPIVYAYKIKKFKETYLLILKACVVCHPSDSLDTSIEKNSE
Kind of series: Adenosine 3 receptor competition radioligand binding, [125I]AB-MECA, HEK293 membranes.

Series [3] concerns the target T3, human A1 adenosine receptor (Homo sapiens, UniProt P30542).
T3 sequence (P30542 1-326): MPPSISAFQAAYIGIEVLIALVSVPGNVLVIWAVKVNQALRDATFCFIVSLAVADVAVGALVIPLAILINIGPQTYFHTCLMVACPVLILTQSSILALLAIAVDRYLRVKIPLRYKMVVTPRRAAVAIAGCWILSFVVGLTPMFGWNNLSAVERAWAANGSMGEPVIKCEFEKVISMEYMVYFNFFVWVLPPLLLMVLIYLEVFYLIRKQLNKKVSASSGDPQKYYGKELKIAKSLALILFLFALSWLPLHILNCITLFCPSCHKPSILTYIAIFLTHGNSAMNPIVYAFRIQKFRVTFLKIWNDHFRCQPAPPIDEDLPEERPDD
Particulars: A1 adenosine receptor agonist; cited from earlier work.

Series [4] addresses human A2a receptor subtype (Homo sapiens, UniProt P29274). Kind of series: Adenosine 2a receptor subtype competition radioligand binding, [3H]CGS-21680, HEK293 membranes.
Series [5] can be described thus: Water solubility (footnote to Table 13). The series is classed as physicochemical.
The target in series [6] is T4, human A1 receptor subtype (Homo sapiens, UniProt P30542).
T4 sequence (P30542 1-326): T3 sequence (P30542 1-326)

In series [7] the target is T4, human A1 receptor subtype. The series can be described thus: biochemical.
Setting [8] is: Table 13, read-out: Binding Ki (nm) A2b.
Where [9] appears, read: Table 13, given as %, footnote 8: % activity @ 10 μM.

Sequence of human A2a receptor subtype (P29274 whole entry): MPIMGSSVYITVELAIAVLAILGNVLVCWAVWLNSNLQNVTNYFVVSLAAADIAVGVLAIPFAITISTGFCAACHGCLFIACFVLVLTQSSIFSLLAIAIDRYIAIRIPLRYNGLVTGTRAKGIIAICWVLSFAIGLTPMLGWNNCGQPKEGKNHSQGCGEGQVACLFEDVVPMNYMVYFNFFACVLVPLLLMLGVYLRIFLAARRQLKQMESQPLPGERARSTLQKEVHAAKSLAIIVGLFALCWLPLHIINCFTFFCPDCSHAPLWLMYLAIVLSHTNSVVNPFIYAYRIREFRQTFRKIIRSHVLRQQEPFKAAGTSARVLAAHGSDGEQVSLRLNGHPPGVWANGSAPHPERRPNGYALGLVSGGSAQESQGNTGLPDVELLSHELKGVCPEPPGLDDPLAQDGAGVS

On to `Cc1[nH]c2nc(-c3ccccc3)nc(NC3CCC(O)CC3)c2c1C` (stereo not shown) [CDS-046142], for which the Ki in series [1] (setting [8]) worked out at 138 nM; in series [2], 0.0215 µM.
In the case of `CC(Cc1ccccc1)Nc1ncnc2c1ncn2[C@@H]1O[C@H](CO)[C@@H](O)[C@H]1O` (single isomer, unassigned; (-)) [R-PIA, (−)-N6-(2-phenylisopropyl)-adenosine], the reported affinity result in series [3] is on record as “approximately 50 nM”.
Regarding `Cc1[nH]c2nc(-c3cccs3)nc(NC3CCC(O)CC3)c2c1C` (stereo not drawn) [CDS-090890, 4-(4-trans-hydroxycyclohexyl)amino-5,6-dimethyl-2-(2-thienyl)-7H-pyrrolo[2,3d]pyrimidin-4-amine], the “A2b binding, % activity” value in series [1] (setting [9]) worked out at 30%. The Ki in series [2] was 0.0099 µM; in series [4], 0.731 µM.
`CNC(=O)NCCCNc1nc(-c2ccccc2)nc2[nH]c(C)c(C)c12` [CDS-121180]: the “A2a binding, % activity” value in series [4] (setting [9]) amounted to 76%.
Turning to `O[C@H]1CC[C@H](Nc2nc(-c3ccncc3)nc3[nH]ccc23)CC1` [CDS-131921, 4-(trans-4-hydroxycyclohexyl)amino-2-(4-pyridyl)-7H-pyrrolo[2,3d]pyrimidine], the “A3 binding, % activity @ 10 μM” value in series [2] (Table 13, 10 μM) is 54%^8.
Consider `CC(=O)NCCNc1nc(-c2ccccc2)nc2[nH]c(Cn3ccccc3=O)cc12` [CDS-143988, 4-(2-acetylaminoethyl)amino-6-(N-pyridin-2-one)methyl-2-phenyl-7H-pyrrolo[2,3d]pyrimidine], for which the inhibitory constant (Ki) in series [1] (Table 14, read-out: Binding Data Ki (nM) A2B) is 47 nM.
On to `Cc1[nH]c2nc(-c3ccccc3)nc(NCCNC(=O)C3(N)CC3)c2c1C` [CDS-123264], for which the water solubility result in series [5] is on record as “^3water soluble;”. Also, in series [6] (setting [9]), the “A1 binding, % activity” value was 30%.
Take `CC(=O)NCCNc1nc(-c2ccccc2)nc2[nH]c(COc3ccccc3)cc12` [CDS-129851, 4-(2-acetylaminoethyl)amino-6-phenoxymethyl-2-phenyl-7H-pyrrolo[2,3d]pyrimidine]: the values for the Ki in series [7] and in series [2] were 0.0417 µM and 0.0146 µM, respectively.
`Cc1[nH]c2nc(-c3ccccc3)nc(NCCCNC(=O)CCN)c2c1C` [CDS-121181]: the results for the inhibitory constant (Ki) in series [1] (setting [8]) and in series [7] were 3400 nM and 75 µM, respectively.
As to `Cc1[nH]c2nc(-c3ccccc3)nc(NC3CCC(NS(C)(=O)=O)CC3)c2c1C` (stereo not shown) [CDS-056176], the inhibition constant Ki in series [6] (read-out: A1 Binding Ki, membranes from yeast cells transformed with human A1 receptor, [3H]DPCPX 1.0 nM) is more than 10 µM.

The values are drawn from US6800633B2, “Pyrrolo[2,3d]pyrimidine compositions and their use” (OSI Pharmaceuticals, Inc., priority 1998, dated 2004).
